# Source: the NIST ThermoML archive (doi:10.1016/j.jct.2007.08.005)
# ± gives the expanded uncertainty stated by the source.
# Assay: xn = mol fraction of the nth substance listed
# Conditions: 308.15 K, 101 kPa, Liquid; for excess molar volume: Direct dilatometry; for speed of sound: Sing-around technique in a fixed-path interferometer
smiles,measurement,setting,value
O=C1CCCN1 [2-pyrrolidinone] + OCCO,excess molar volume,x2 = 0.0118,4e-09 ± 5e-09 m3/mol
same,excess molar volume,x2 = 0.0271,1.1e-08 ± 5e-09 m3/mol
same,excess molar volume,x2 = 0.0551,2.1e-08 ± 5e-09 m3/mol
same,excess molar volume,x2 = 0.0711,2.4e-08 ± 5e-09 m3/mol
same,excess molar volume,x2 = 0.0891,3.3e-08 ± 5e-09 m3/mol
same,excess molar volume,x2 = 0.1123,3.6e-08 ± 5e-09 m3/mol
same,excess molar volume,x2 = 0.1356,4.4e-08 ± 5e-09 m3/mol
same,excess molar volume,x2 = 0.1467,5e-08 ± 5e-09 m3/mol
same,excess molar volume,x2 = 0.1671,5.6e-08 ± 5e-09 m3/mol
same,excess molar volume,x2 = 0.1927,6e-08 ± 5e-09 m3/mol
same,excess molar volume,x2 = 0.2287,6.9e-08 ± 5e-09 m3/mol
same,excess molar volume,x2 = 0.2682,8.3e-08 ± 5e-09 m3/mol
same,excess molar volume,x2 = 0.3038,9.4e-08 ± 5e-09 m3/mol
same,excess molar volume,x2 = 0.3336,1.01e-07 ± 5e-09 m3/mol
same,excess molar volume,x2 = 0.4018,1.12e-07 ± 5e-09 m3/mol
same,excess molar volume,x2 = 0.4305,1.16e-07 ± 5e-09 m3/mol
same,excess molar volume,x2 = 0.4785,1.21e-07 ± 5e-09 m3/mol
same,excess molar volume,x2 = 0.4965,1.22e-07 ± 5e-09 m3/mol
same,excess molar volume,x2 = 0.5172,1.22e-07 ± 5e-09 m3/mol
same,excess molar volume,x2 = 0.543,1.23e-07 ± 5e-09 m3/mol
same,excess molar volume,x2 = 0.5614,1.22e-07 ± 5e-09 m3/mol
same,excess molar volume,x2 = 0.607,1.2e-07 ± 5e-09 m3/mol
same,excess molar volume,x2 = 0.623,1.19e-07 ± 5e-09 m3/mol
same,excess molar volume,x2 = 0.6414,1.17e-07 ± 5e-09 m3/mol
same,excess molar volume,x2 = 0.6694,1.15e-07 ± 5e-09 m3/mol
same,excess molar volume,x2 = 0.6896,1.11e-07 ± 5e-09 m3/mol
same,excess molar volume,x2 = 0.7154,1.08e-07 ± 5e-09 m3/mol
same,excess molar volume,x2 = 0.7437,1.02e-07 ± 5e-09 m3/mol
same,excess molar volume,x2 = 0.7579,1e-07 ± 5e-09 m3/mol
same,excess molar volume,x2 = 0.7775,9.6e-08 ± 5e-09 m3/mol
same,excess molar volume,x2 = 0.8278,8.7e-08 ± 5e-09 m3/mol
same,excess molar volume,x2 = 0.8424,8.4e-08 ± 5e-09 m3/mol
same,excess molar volume,x2 = 0.8713,7.5e-08 ± 5e-09 m3/mol
same,excess molar volume,x2 = 0.8846,7e-08 ± 5e-09 m3/mol
same,excess molar volume,x2 = 0.8963,6.6e-08 ± 5e-09 m3/mol
same,excess molar volume,x2 = 0.9107,5.9e-08 ± 5e-09 m3/mol
same,excess molar volume,x2 = 0.9249,5.2e-08 ± 5e-09 m3/mol
same,excess molar volume,x2 = 0.9349,4.4e-08 ± 5e-09 m3/mol
same,excess molar volume,x2 = 0.9544,3.6e-08 ± 5e-09 m3/mol
same,excess molar volume,x2 = 0.961,2.7e-08 ± 5e-09 m3/mol
same,excess molar volume,x2 = 0.9747,1.8e-08 ± 5e-09 m3/mol
same,excess molar volume,x2 = 0.9869,1.2e-08 ± 5e-09 m3/mol
same,excess molar volume,x2 = 0.9976,4e-09 ± 5e-09 m3/mol
same,speed of sound,x2 = 0.0351,1600.6 ± 1.4 m/s
same,speed of sound,x2 = 0.0613,1601.1 ± 1.3 m/s
same,speed of sound,x2 = 0.0816,1601.4 ± 1.3 m/s
same,speed of sound,x2 = 0.1155,1601.9 ± 1.3 m/s
same,speed of sound,x2 = 0.1641,1602.4 ± 1.3 m/s
same,speed of sound,x2 = 0.2134,1602.9 ± 1.3 m/s
same,speed of sound,x2 = 0.3111,1604.5 ± 1.2 m/s
same,speed of sound,x2 = 0.3866,1605.8 ± 1.2 m/s
same,speed of sound,x2 = 0.5068,1607.7 ± 1.2 m/s
same,speed of sound,x2 = 0.6039,1610 ± 1.2 m/s
same,speed of sound,x2 = 0.7046,1613.5 ± 1.1 m/s
same,speed of sound,x2 = 0.8015,1617.8 ± 1.1 m/s
same,speed of sound,x2 = 0.8495,1620.3 ± 1.1 m/s
same,speed of sound,x2 = 0.8974,1624.1 ± 1.1 m/s
same,speed of sound,x2 = 0.9233,1626 ± 1.1 m/s
same,speed of sound,x2 = 0.9458,1627.7 ± 1.1 m/s
same,speed of sound,x2 = 0.9731,1631 ± 1.1 m/s
same,viscosity,x2 = 0.0351,8.955 ± 0.17 mPa·s
same,viscosity,x2 = 0.0613,9.037 ± 0.18 mPa·s
same,viscosity,x2 = 0.0816,9.118 ± 0.18 mPa·s
same,viscosity,x2 = 0.1155,9.255 ± 0.18 mPa·s
same,viscosity,x2 = 0.1641,9.302 ± 0.18 mPa·s
same,viscosity,x2 = 0.2134,9.358 ± 0.18 mPa·s
same,viscosity,x2 = 0.3111,9.487 ± 0.18 mPa·s
same,viscosity,x2 = 0.3866,9.654 ± 0.18 mPa·s
same,viscosity,x2 = 0.5068,9.833 ± 0.19 mPa·s
same,viscosity,x2 = 0.6039,9.963 ± 0.19 mPa·s
same,viscosity,x2 = 0.7046,10.04 ± 0.19 mPa·s
same,viscosity,x2 = 0.8015,10.29 ± 0.19 mPa·s
same,viscosity,x2 = 0.8495,10.5 ± 0.2 mPa·s
same,viscosity,x2 = 0.8974,10.75 ± 0.2 mPa·s
same,viscosity,x2 = 0.9233,10.83 ± 0.2 mPa·s
same,viscosity,x2 = 0.9458,11.05 ± 0.2 mPa·s
same,viscosity,x2 = 0.9731,11.14 ± 0.21 mPa·s
"OCCCO [propan-1,3-diol] + O=C1CCCN1",excess molar volume,x1 = 0.0149,7e-09 ± 5e-09 m3/mol
same,excess molar volume,x1 = 0.0255,1e-08 ± 5e-09 m3/mol
same,excess molar volume,x1 = 0.0582,1.6e-08 ± 5e-09 m3/mol
same,excess molar volume,x1 = 0.0669,1.8e-08 ± 5e-09 m3/mol
same,excess molar volume,x1 = 0.0811,1.9e-08 ± 5e-09 m3/mol
same,excess molar volume,x1 = 0.0944,1.9e-08 ± 5e-09 m3/mol
same,excess molar volume,x1 = 0.1161,2.2e-08 ± 5e-09 m3/mol
same,excess molar volume,x1 = 0.133,2.3e-08 ± 5e-09 m3/mol
same,excess molar volume,x1 = 0.1507,2.5e-08 ± 5e-09 m3/mol
same,excess molar volume,x1 = 0.1752,2.6e-08 ± 5e-09 m3/mol
same,excess molar volume,x1 = 0.2346,2.7e-08 ± 5e-09 m3/mol
same,excess molar volume,x1 = 0.2749,2.8e-08 ± 5e-09 m3/mol
same,excess molar volume,x1 = 0.3232,2.9e-08 ± 5e-09 m3/mol
same,excess molar volume,x1 = 0.399,2.8e-08 ± 5e-09 m3/mol
same,excess molar volume,x1 = 0.4472,2.5e-08 ± 5e-09 m3/mol
same,excess molar volume,x1 = 0.4784,2.5e-08 ± 5e-09 m3/mol
same,excess molar volume,x1 = 0.4826,2.4e-08 ± 5e-09 m3/mol
same,excess molar volume,x1 = 0.4941,2.4e-08 ± 5e-09 m3/mol
same,excess molar volume,x1 = 0.518,2.2e-08 ± 5e-09 m3/mol
same,excess molar volume,x1 = 0.537,2.1e-08 ± 5e-09 m3/mol
same,excess molar volume,x1 = 0.5552,2.1e-08 ± 5e-09 m3/mol
same,excess molar volume,x1 = 0.5751,1.8e-08 ± 5e-09 m3/mol
same,excess molar volume,x1 = 0.6011,1.5e-08 ± 5e-09 m3/mol
same,excess molar volume,x1 = 0.6281,1.3e-08 ± 5e-09 m3/mol
same,excess molar volume,x1 = 0.6505,1e-08 ± 5e-09 m3/mol
same,excess molar volume,x1 = 0.6707,9e-09 ± 5e-09 m3/mol
same,excess molar volume,x1 = 0.6824,8e-09 ± 5e-09 m3/mol
same,excess molar volume,x1 = 0.7028,4e-09 ± 5e-09 m3/mol
same,excess molar volume,x1 = 0.7232,1e-09 ± 5e-09 m3/mol
same,excess molar volume,x1 = 0.746,-2e-09 ± 5e-09 m3/mol
same,excess molar volume,x1 = 0.7719,-4e-09 ± 5e-09 m3/mol
same,excess molar volume,x1 = 0.791,-6e-09 ± 5e-09 m3/mol
same,excess molar volume,x1 = 0.8126,-8e-09 ± 5e-09 m3/mol
same,excess molar volume,x1 = 0.8237,-1e-08 ± 5e-09 m3/mol
same,excess molar volume,x1 = 0.8409,-1.3e-08 ± 5e-09 m3/mol
same,excess molar volume,x1 = 0.853,-1.6e-08 ± 5e-09 m3/mol
same,excess molar volume,x1 = 0.8712,-1.9e-08 ± 5e-09 m3/mol
same,excess molar volume,x1 = 0.8823,-2.1e-08 ± 5e-09 m3/mol
same,excess molar volume,x1 = 0.8935,-2.2e-08 ± 5e-09 m3/mol
same,excess molar volume,x1 = 0.9116,-2.4e-08 ± 5e-09 m3/mol
same,excess molar volume,x1 = 0.9269,-2.4e-08 ± 5e-09 m3/mol
same,excess molar volume,x1 = 0.9355,-2.3e-08 ± 5e-09 m3/mol
same,excess molar volume,x1 = 0.9476,-2.2e-08 ± 5e-09 m3/mol
same,excess molar volume,x1 = 0.9599,-2e-08 ± 5e-09 m3/mol
same,excess molar volume,x1 = 0.9803,-1.4e-08 ± 5e-09 m3/mol
same,excess molar volume,x1 = 0.9887,-1.2e-08 ± 5e-09 m3/mol
same,excess molar volume,x1 = 0.9978,-8e-09 ± 5e-09 m3/mol
same,speed of sound,x1 = 0.0365,1600.9 ± 1.4 m/s
same,speed of sound,x1 = 0.059,1601.4 ± 1.4 m/s
same,speed of sound,x1 = 0.0794,1602.1 ± 1.4 m/s
same,speed of sound,x1 = 0.1005,1602.7 ± 1.4 m/s
same,speed of sound,x1 = 0.1451,1603.5 ± 1.4 m/s
same,speed of sound,x1 = 0.1944,1604.5 ± 1.4 m/s
same,speed of sound,x1 = 0.3004,1606.2 ± 1.4 m/s
same,speed of sound,x1 = 0.3994,1607.4 ± 1.4 m/s
same,speed of sound,x1 = 0.4902,1608.2 ± 1.4 m/s
same,speed of sound,x1 = 0.5828,1608.7 ± 1.4 m/s
same,speed of sound,x1 = 0.6833,1608.8 ± 1.4 m/s
same,speed of sound,x1 = 0.7889,1608.3 ± 1.4 m/s
same,speed of sound,x1 = 0.8265,1607.7 ± 1.4 m/s
same,speed of sound,x1 = 0.8909,1606.7 ± 1.4 m/s
same,speed of sound,x1 = 0.9186,1606.4 ± 1.4 m/s
same,speed of sound,x1 = 0.9422,1605.8 ± 1.4 m/s
same,speed of sound,x1 = 0.9712,1605 ± 1.4 m/s
same,viscosity,x1 = 0.0365,9.37 ± 0.18 mPa·s
same,viscosity,x1 = 0.059,9.712 ± 0.19 mPa·s
same,viscosity,x1 = 0.0794,9.969 ± 0.19 mPa·s
same,viscosity,x1 = 0.1005,10.29 ± 0.2 mPa·s
same,viscosity,x1 = 0.1452,10.9 ± 0.21 mPa·s
same,viscosity,x1 = 0.1944,11.58 ± 0.22 mPa·s
same,viscosity,x1 = 0.3005,13.29 ± 0.25 mPa·s
same,viscosity,x1 = 0.3994,15.04 ± 0.28 mPa·s
same,viscosity,x1 = 0.4902,16.76 ± 0.3 mPa·s
same,viscosity,x1 = 0.5828,18.38 ± 0.33 mPa·s
same,viscosity,x1 = 0.6833,20.23 ± 0.36 mPa·s
same,viscosity,x1 = 0.7889,22.45 ± 0.4 mPa·s
same,viscosity,x1 = 0.8265,23.24 ± 0.41 mPa·s
same,viscosity,x1 = 0.8909,24.43 ± 0.43 mPa·s
same,viscosity,x1 = 0.9186,24.98 ± 0.44 mPa·s
same,viscosity,x1 = 0.9422,25.52 ± 0.45 mPa·s
same,viscosity,x1 = 0.9712,26.02 ± 0.46 mPa·s
